Results from patent US20140274990A1, “CEFTOLOZANE PHARMACEUTICAL COMPOSITIONS” (Cubist Pharmaceuticals, Inc., priority 2013, published 2014).

Experiment: stability testing of initial lyophilized ceftolozane pharmaceutical compositions, HPLC
Assay type: physicochemical
Settings: certain lyophilized pharmaceutical compositions initially evaluated for intravenous administration
Description: As disclosed herein, ceftolozane was unstable in certain lyophilized pharmaceutical compositions initially evaluated for intravenous administration. In particular, a decrease in ceftolozane purity and the formation of multiple additional related substances were detected in certain initial ceftolozane pharmaceutical compositions by peaks in […] (HPLC) after stability testing. This testing pointed to the need to develop novel ceftolozane formulations providing increased ceftolozane stability. […] Nor does this disclosure provide guidance on the formation of ceftolozane pharmaceutical compositions to increase ceftolozane purity during stability testing or control the relative amounts of ceftolozane related substances detected by HPLC peak formation during stability testing.

Cn1c(N)c(NC(=O)NCCN)c[n+]1CC1=C(C(=O)O)N2C(=O)[C@@H](NC(=O)/C(=N\OC(C)(C)C(=O)[O-])c3nsc(N)n3)[C@H]2SC1 [ceftolozane, (6R,7R)-3-[(5-amino-4-{[(2-aminoethyl)carbamoyl]amino}-1-methyl-1H-pyrazol-2-ium-2-yl)methyl]-7-({(2Z)-2-(5-amino-1,2,4-thiadiazol-3-yl)-2-[(1-carboxy-1-methylethoxy)imino]acetyl}amino)-8-oxo-5-thia-1-azabicyclo[4.2.0]oct-2-ene-2-carboxylate]
ceftolozane stability in lyophilized composition: unstable
